Experiments:
Assay type in all cases: in vivo
[1] = system: ryegrass, Italian (Italian ryegrass, Lolium multiflorum); assay: Test A preemergence; settings: Lolium multiflorum, pre-emergence, 240 h, 0 to 100 scale where 0 is no effect and 100 is complete control, read-out: Ryegrass, Italian plant response rating; for pest or weed control at 31 g/ha: 31 g ai/ha, Preemergence; for pest or weed control at 125 g/ha: 125 g ai/ha, preemergence, visual injury rating, approximately 10 d
Method in brief: (§1)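 Seeded soil received test chemicals as a preemergence directed spray, and seedlings at one to two leaves, 2–10 cm tall, received them postemergence, in a non-phytotoxic, surfactant-containing solvent mixture. Pots were held in a greenhouse for approximately 10 d, then rated for injury from 0, no effect, to 100, complete control.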

[2] = system: pigweed (Amaranthus retroflexus); assay: Test A preemergence; settings: Amaranthus retroflexus, pre-emergence, 240 h, 0 to 100 scale where 0 is no effect and 100 is complete control, read-out: Pigweed plant response rating; for pest or weed control at 31 g/ha: 31 g ai/ha, Preemergence; for pest or weed control at 125 g/ha: 125 g ai/ha, preemergence, visual injury rating, approximately 10 d
[3] = system: giant foxtail (Setaria faberii); assay: Test A preemergence; settings: Setaria faberi, pre-emergence, 240 h, 0 to 100 scale where 0 is no effect and 100 is complete control, read-out: Foxtail, Giant plant response rating; for pest or weed control at 31 g/ha: 31 g ai/ha, Preemergence; for pest or weed control at 125 g/ha: 125 g ai/ha, preemergence, visual injury rating, approximately 10 d
Method in brief: as §1

Kochia (Kochia scoparia) [4] = assay: Test A preemergence; settings: Bassia scoparia, pre-emergence, 240 h, 0 to 100 scale where 0 is no effect and 100 is complete control, read-out: Kochia plant response rating; for pest or weed control at 31 g/ha: 31 g ai/ha, Preemergence; for pest or weed control at 125 g/ha: 125 g ai/ha, preemergence, visual injury rating, approximately 10 d
Method in brief: as §1

[5] = system: ragweed (common ragweed, Ambrosia elatior); assay: Test A preemergence; settings: Ambrosia artemisiifolia, pre-emergence, 240 h, 0 to 100 scale where 0 is no effect and 100 is complete control, read-out: Ragweed plant response rating; for pest or weed control at 31 g/ha: 31 g ai/ha, Preemergence; for pest or weed control at 125 g/ha: 125 g ai/ha, preemergence, visual injury rating, approximately 10 d
Method in brief: as §1

[6] = system: barnyardgrass (Echinochloa crus-galli); assay: Test A preemergence; settings: Echinochloa crus-galli, pre-emergence, 240 h, 0 to 100 scale where 0 is no effect and 100 is complete control, read-out: Barnyardgrass plant response rating; for pest or weed control at 31 g/ha: 31 g ai/ha, Preemergence; for pest or weed control at 125 g/ha: 125 g ai/ha, preemergence, visual injury rating, approximately 10 d
Method in brief: as §1

rice (Oryra sativa) = assay: Test B flooded paddy test; settings: Oryza sativa, 250 g ai/ha, Flood; 0 to 100 scale where 0 is no effect and 100 is complete control; read-out: Rice plant response rating
Method in brief: (§2)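 Flooding to 3 cm over soil accompanied treatment, which consisted of adding compound to the standing water around 2-leaf plants; depth was then maintained. Visual assessment versus controls followed at 13 to 15 d (scale 0–100, 0 meaning no effect).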

[7] = system: ducksalad (Heteranthera limosa); assay: Test B flooded paddy test; settings: Heteranthera limosa, 250 g ai/ha, Flood; 0 to 100 scale where 0 is no effect and 100 is complete control; read-out: Ducksalad plant response rating
Method in brief: as §2

[8] = system: sedge, umbrella (small-flower umbrella sedge, Cyperus difformis); assay: Test B flooded paddy test; settings: Cyperus difformis, 250 g ai/ha, Flood; 0 to 100 scale where 0 is no effect and 100 is complete control; read-out: Sedge, Umbrella plant response rating
Method in brief: as §2

[9] = system: barnyardgrass (Echinochloa crus-galli); assay: Test B flooded paddy test; settings: Echinochloa crus-galli, 250 g ai/ha, Flood; 0 to 100 scale where 0 is no effect and 100 is complete control; read-out: Barnyardgrass plant response rating
Method in brief: as §2

[10] = system: ryegrass, Italian (Italian ryegrass, Lolium multiflorum); assay: Test A postemergence; settings: Lolium multiflorum, post-emergence, 240 h, read-out: Ryegrass, Italian plant response rating (0 to 100 scale); for pest or weed control at 125 g/ha: 125 g ai/ha, postemergence, visual injury vs untreated controls after approx. 10 d, 0 = no effect, 100 = complete control; for pest or weed control at 31 g/ha: Postemergence, 31 g ai/ha, 0 is no effect, 100 is complete control
Method in brief: as §1

[11] = system: pigweed (Amaranthus retroflexus); assay: Test A postemergence; settings: Amaranthus retroflexus, post-emergence, 240 h, read-out: Pigweed plant response rating (0 to 100 scale); for pest or weed control at 125 g/ha: 125 g ai/ha, postemergence, visual injury vs untreated controls after approx. 10 d, 0 = no effect, 100 = complete control; for pest or weed control at 31 g/ha: Postemergence, 31 g ai/ha, 0 is no effect, 100 is complete control
Method in brief: as §1

[12] = system: Galium (catchweed bedstraw, Galium aparine); assay: Test A postemergence; settings: Galium, post-emergence, 240 h, read-out: Galium plant response rating (0 to 100 scale); for pest or weed control at 125 g/ha: 125 g ai/ha, postemergence, visual injury vs untreated controls after approx. 10 d, 0 = no effect, 100 = complete control; for pest or weed control at 31 g/ha: Postemergence, 31 g ai/ha, 0 is no effect, 100 is complete control
Method in brief: as §1

[13] = system: giant foxtail (Setaria faberii); assay: Test A postemergence; settings: Setaria faberi, post-emergence, 240 h, read-out: Foxtail, Giant plant response rating (0 to 100 scale); for pest or weed control at 125 g/ha: 125 g ai/ha, postemergence, visual injury vs untreated controls after approx. 10 d, 0 = no effect, 100 = complete control; for pest or weed control at 31 g/ha: Postemergence, 31 g ai/ha, 0 is no effect, 100 is complete control
Method in brief: as §1

corn (Zea mays) = assay: Test A postemergence; settings: Zea mays, post-emergence, 240 h, read-out: Corn plant response rating (0 to 100 scale); for plant injury at 125 g/ha: 125 g ai/ha, postemergence, visual injury vs untreated controls after approx. 10 d, 0 = no effect, 100 = complete control; for plant injury at 31 g/ha: Postemergence, 31 g ai/ha, 0 is no effect, 100 is complete control
Method in brief: as §1

[14] = system: wheat (Triticum aestivum); assay: Test A postemergence; settings: Triticum aestivum, post-emergence, 240 h, read-out: Wheat plant response rating (0 to 100 scale); for plant injury at 125 g/ha: 125 g ai/ha, postemergence, visual injury vs untreated controls after approx. 10 d, 0 = no effect, 100 = complete control; for plant injury at 31 g/ha: Postemergence, 31 g ai/ha, 0 is no effect, 100 is complete control
Method in brief: as §1

[15] = system: blackgrass (Alopecurus myosuroides); assay: Test A postemergence; settings: Alopecurus myosuroides, post-emergence, 240 h, read-out: Blackgrass plant response rating (0 to 100 scale); for pest or weed control at 125 g/ha: 125 g ai/ha, postemergence, visual injury vs untreated controls after approx. 10 d, 0 = no effect, 100 = complete control; for pest or weed control at 31 g/ha: Postemergence, 31 g ai/ha, 0 is no effect, 100 is complete control
Method in brief: as §1

Kochia (Kochia scoparia) [16] = assay: Test A postemergence; settings: Bassia scoparia, post-emergence, 240 h, read-out: Kochia plant response rating (0 to 100 scale); for pest or weed control at 125 g/ha: 125 g ai/ha, postemergence, visual injury vs untreated controls after approx. 10 d, 0 = no effect, 100 = complete control; for pest or weed control at 31 g/ha: Postemergence, 31 g ai/ha, 0 is no effect, 100 is complete control
Method in brief: as §1

[17] = system: ragweed (common ragweed, Ambrosia elatior); assay: Test A postemergence; settings: Ambrosia artemisiifolia, post-emergence, 240 h, read-out: Ragweed plant response rating (0 to 100 scale); for pest or weed control at 125 g/ha: 125 g ai/ha, postemergence, visual injury vs untreated controls after approx. 10 d, 0 = no effect, 100 = complete control; for pest or weed control at 31 g/ha: Postemergence, 31 g ai/ha, 0 is no effect, 100 is complete control
Method in brief: as §1

[18] = system: barnyardgrass (Echinochloa crus-galli); assay: Test A postemergence; settings: Echinochloa crus-galli, post-emergence, 240 h, read-out: Barnyardgrass plant response rating (0 to 100 scale); for pest or weed control at 125 g/ha: 125 g ai/ha, postemergence, visual injury vs untreated controls after approx. 10 d, 0 = no effect, 100 = complete control; for pest or weed control at 31 g/ha: Postemergence, 31 g ai/ha, 0 is no effect, 100 is complete control
Method in brief: as §1

Compound | pest or weed control at 31 g/ha [1] | pest or weed control at 125 g/ha [1] | pest or weed control at 31 g/ha [2] | pest or weed control at 125 g/ha [2] | pest or weed control at 31 g/ha [3] | pest or weed control at 125 g/ha [3] | pest or weed control at 31 g/ha (Kochia (Kochia scoparia) [4]) | pest or weed control at 125 g/ha (Kochia (Kochia scoparia) [4]) | pest or weed control at 31 g/ha [5] | pest or weed control at 125 g/ha [5] | pest or weed control at 31 g/ha [6] | pest or weed control at 125 g/ha [6] | pest or weed control at 250 g/ha (rice (Oryra sativa)) | pest or weed control at 250 g/ha [7] | pest or weed control at 250 g/ha [8] | pest or weed control at 250 g/ha [9] | pest or weed control at 125 g/ha [10] | pest or weed control at 31 g/ha [10] | pest or weed control at 125 g/ha [11] | pest or weed control at 31 g/ha [11] | other results
Cc1ccc([C@H]2CN(C)C(=O)[C@@H]2C(=O)Nc2cccc(C#N)c2F)cc1 [Compound 1188] | 0% | 60% | 40% | 80% | 90% | 100% | 60% | 80% | 30% | 70% | 90% | 100% | 15% | 100% | 0% | 65% | 40% | 0% | 20% | 0% | pest or weed control at 125 g/ha [12]: 60%; pest or weed control at 31 g/ha [12]: 50%; pest or weed control at 125 g/ha [13]: 80%; pest or weed control at 31 g/ha [13]: 70%; plant injury at 125 g/ha (corn (Zea mays)): 50%; plant injury at 31 g/ha (corn (Zea mays)): 0%; plant injury at 125 g/ha [14]: 40%; plant injury at 31 g/ha [14]: 0%; pest or weed control at 125 g/ha [15]: 70%; pest or weed control at 31 g/ha [15]: 30%; pest or weed control at 125 g/ha (Kochia (Kochia scoparia) [16]): 50%; pest or weed control at 31 g/ha (Kochia (Kochia scoparia) [16]): 0%; pest or weed control at 125 g/ha [17]: 40%; pest or weed control at 31 g/ha [17]: 0%; pest or weed control at 125 g/ha [18]: 100%; pest or weed control at 31 g/ha [18]: 70%
CN1C[C@H](c2ccc(C#N)c(F)c2)[C@@H](C(=O)Nc2ccccc2F)C1=O [Compound 1190] | 0% | 0% | 0% | 0% | 60% | 90% | 0% | 0% | 0% | 0% | 50% | 90% | 40% | 90% | 0% | 55% | 0% | 0% | 0% | 0% | pest or weed control at 125 g/ha [12]: 20%; pest or weed control at 31 g/ha [12]: 0%; pest or weed control at 125 g/ha [13]: 20%; pest or weed control at 31 g/ha [13]: 0%; plant injury at 125 g/ha (corn (Zea mays)): 0%; plant injury at 31 g/ha (corn (Zea mays)): 0%; plant injury at 125 g/ha [14]: 0%; plant injury at 31 g/ha [14]: 0%; pest or weed control at 125 g/ha [15]: 0%; pest or weed control at 31 g/ha [15]: 0%; pest or weed control at 125 g/ha (Kochia (Kochia scoparia) [16]): 0%; pest or weed control at 31 g/ha (Kochia (Kochia scoparia) [16]): 0%; pest or weed control at 125 g/ha [17]: 0%; pest or weed control at 31 g/ha [17]: 0%; pest or weed control at 125 g/ha [18]: 60%; pest or weed control at 31 g/ha [18]: 0%
